In brackets after ≈: the same amount, converted by molar mass.
Assays:
Assay type in all cases: functional
Micrococcus luteus = experiment: Antibacterial activity against Micrococcus luteus […] 8166 by agar diffusion assay
Lactococcus lactis = experiment: Antibacterial activity against Lactococcus lactis MG1614 by agar diffusion assay
Staphylococcus aureus [1] = experiment: Antibacterial activity against methicillin-resistant Staphylococcus aureus ATCC 43300 after 24 hrs by microdilution method; settings: ATCC 43300, 24 h
Staphylococcus aureus [2] = experiment: Antibacterial activity against Staphylococcus aureus RFB127 after 24 hrs by microdilution method; settings: RFB127, 24 h
Staphylococcus aureus [3] = experiment: Antibacterial activity against Staphylococcus aureus ATCC 25923 after 24 hrs by microdilution method; settings: ATCC 25923, 24 h
Listeria innocua = experiment: Antibacterial activity against Listeria innocua ATCC 33090 after 24 hrs by microdilution method; settings: ATCC 33090, 24 h
Kocuria rhizophila = experiment: Antibacterial activity against Micrococcus luteus ATCC 9341 after 24 hrs by microdilution method
[4] = system: Staphylococcus epidermidis; experiment: Antibacterial activity against Staphylococcus epidermidis ATCC 1228 after 24 hrs by microdilution method; settings: ATCC 1228, 24 h
Enterococcus faecium = experiment: Antibacterial activity against Enterococcus faecium RFB128 after 24 hrs by microdilution method; settings: RFB128, 24 h
Listeria monocytogenes [5] = experiment: Antibacterial activity against Listeria monocytogenes LMG 23905 after 24 hrs by microdilution method; settings: LMG 23905, 24 h
Enterococcus faecalis = experiment: Antibacterial activity against Enterococcus faecalis ATCC 29212 after 24 hrs by microdilution method; settings: ATCC 29212, 24 h
Listeria monocytogenes [6] = experiment: Antibacterial activity against Listeria monocytogenes LMG 21263 after 24 hrs by microdilution method; settings: LMG 21263, 24 h
Bacillus spizizenii = experiment: Antibacterial activity against Bacillus subtilis ATCC 6633 after 24 hrs by microdilution method; settings: ATCC 6633, 24 h
Bacillus cereus = experiment: Antibacterial activity against Bacillus cereus RFB125 after 24 hrs by microdilution method; settings: RFB125, 24 h
Streptococcus agalactiae = experiment: Antibacterial activity against Streptococcus agalactiae RFB141 after 24 hrs by microdilution method; settings: RFB141, 24 h
Priestia megaterium = experiment: Antibacterial activity against Bacillus megaterium RFB124 after 24 hrs by microdilution method; settings: RFB124, 24 h

MIC (Micrococcus luteus) [µM] | MIC (Lactococcus lactis) [µM] | Structure (SMILES) | MIC (Staphylococcus aureus [1]) [µM] | MIC (Staphylococcus aureus [2]) [µM] | MIC (Staphylococcus aureus [3]) [µM] | MIC (Listeria innocua) [µM] | MIC (Kocuria rhizophila) [µM] | MIC [4] [µM] | MIC (Enterococcus faecium) [µM] | MIC (Listeria monocytogenes [5]) [µM] | MIC (Enterococcus faecalis) [µM] | MIC (Listeria monocytogenes [6]) [µM] | MIC (Bacillus spizizenii) [µM] | MIC (Bacillus cereus) [µM] | MIC (Streptococcus agalactiae) [µM] | MIC (Priestia megaterium) [µM]
0.0151 (≈ 0.0501 µg/mL) | 0.301 (≈ 1 µg/mL) | C=C(NC(=O)[C@H](NC(=O)[C@@H](CCCCN)NC(=O)[C@@H]1CSC(C)C2NC(=O)[C@@H](CC(C)C)NC(=O)C(NC(=O)[C@H](CCC(N)=O)NC(=O)[C@H](CC(C)C)NC(=O)[C@H](Cc3ccccc3)NC(=O)[C@@H]3CSC(C)C(NC(=O)[C@H](NC(=O)[C@@H]4CSC(C)C(NC(=O)[C@H]5CSC[C@H](NC(=O)[C@H](CCCCN)NC(=O)[C@@H](N)Cc6c[nH]c7ccccc67)C(=O)N[C@@H](CCC(=O)O)C(=O)NC(=C)C(=O)N[C@@H](CC(C)C)C(=O)N5)C(=O)N5CCC[C@@H]5C(=O)NCC(=O)N4)C(C)C)C(=O)NCC(=O)N[C@@H](C)C(=O)N[C@@H](CC(C)C)C(=O)N[C@@H](CCC(N)=O)C(=O)N/C(=C\C)C(=O)N3)C(C)SC[C@@H](NC2=O)C(=O)N[C@H](CC(N)=O)C(=O)N1)[C@H](C)CC)C(=O)N[C@@H](CCCCN)C(=O)O (stereo partly drawn) |  |  |  |  |  |  |  |  |  |  |  |  |  | 
0.0994 (≈ 0.34 µg/mL) | 5.55 (≈ 19 µg/mL) | C=C(NC(=O)[C@@H](NC(=O)[C@H](CCCCN)NC(=O)[C@H]1CSC(C)C2NC(=O)[C@H](CC(C)C)NC(=O)C(NC(=O)[C@@H](CCC(N)=O)NC(=O)[C@@H](CC(C)C)NC(=O)[C@@H](Cc3ccccc3)NC(=O)[C@H]3CSC(C)C(NC(=O)[C@@H](NC(=O)[C@H]4CSC(C)C(NC(=O)[C@H]5CSC[C@@H](NC(=O)[C@@H](CCCCN)NC(=O)[C@H](Cc6c[nH]c7ccccc67)NC(=O)CCC(=O)O)C(=O)N[C@H](CCC(=O)O)C(=O)NC(=C)C(=O)N[C@H](CC(C)C)C(=O)N5)C(=O)N5CCC[C@H]5C(=O)NCC(=O)N4)C(C)C)C(=O)NCC(=O)N[C@H](C)C(=O)N[C@H](CC(C)C)C(=O)N[C@H](CCC(N)=O)C(=O)N/C(=C\C)C(=O)N3)C(C)SC[C@H](NC2=O)C(=O)N[C@@H](CC(N)=O)C(=O)N1)[C@@H](C)CC)C(=O)N[C@H](CCCCN)C(=O)O (stereo partly drawn) |  |  |  |  |  |  |  |  |  |  |  |  |  | 
 |  | C/C=C(\NC(=O)[C@H](Cc1cnc[nH]1)NC(=O)/C(=C/C)NC(=O)[C@@H]1CCCN1C(=O)[C@@H]1CSC[C@@H]2NC(=O)[C@H](CC(C)C)NC(=O)[C@@H](NC(=O)[C@H]3CSC[C@@H](NC(=O)[C@@H](NC(=O)CNC(=O)[C@H](CCCNC(=N)N)NC(=O)[C@H](CCC(N)=O)NC(=O)[C@H](CCC(=O)O)NC(=O)[C@H](C)N)[C@H](C)CC)C(=O)N[C@@H](CCC(N)=O)C(=O)NCC(=O)N[C@H](CC(N)=O)C(=O)N[C@H](CC(=O)O)C(=O)NCC(=O)N[C@H](CCCCN)C(=O)N[C@@H](CC(C)C)C(=O)N3)CSC[C@@H](NC(=O)[C@H](CCC(=O)O)NC(=O)[C@H](Cc3c[nH]c4ccccc34)NC2=O)C(=O)NCC(=O)N[C@@H](CC(C)C)C(=O)N1)C(=O)N[C@@H](CS)C(=O)N[C@H](Cc1c[nH]c2ccccc12)C(=O)N[C@H](CS)C(=O)O | 0.4 (≈ 1.32 µg/mL) | 1.4 (≈ 4.61 µg/mL) | 2.8 (≈ 9.22 µg/mL) | 0.7 (≈ 2.31 µg/mL) | 0.7 (≈ 2.31 µg/mL) | 2.8 (≈ 9.22 µg/mL) | 0.1 (≈ 0.329 µg/mL) | 0.4 (≈ 1.32 µg/mL) | 1.4 (≈ 4.61 µg/mL) | 0.5 (≈ 1.65 µg/mL) | 1.4 (≈ 4.61 µg/mL) | 0.2 (≈ 0.659 µg/mL) | 2.8 (≈ 9.22 µg/mL) | 0.4 (≈ 1.32 µg/mL)

From ChEMBL document CHEMBL3751701, “Class I and Class II Lanthipeptides Produced by Bacillus spp” (2015)
